For data set [1] the following is noted: cited from earlier work.
Data set [2] deals with Caco-2 cells. Particulars: cited from earlier work.
In data set [3] the test system is Caco-2 cells.
For data set [4], the system named is colon-derived human cells (NCM460 and HT-29MTX). Particulars: cited from earlier work.
The conditions of data set [5]: cited from earlier work. The source holds these as a separate data set.
Details of data set [6]: method as in PMID 25283090. The note with it: in vivo studies; cited from earlier work.

The structures appear in SMILES notation.

For `O=S(=O)(O)CC(S)CS` (stereo not shown) [DMPS, 2,3-dimercapto-1-propanesulfonic acid], the “Properties: water solubility” value in data set [1] is recorded as “C3H8O3S3 M.wt; 188.289g/mol Water soluble”.
With `[Cl][Cd][Cl]` [CdCl2], the “Cd taken up (retained in the cells and transferred through cells) by Caco-2 cells” value with Caco-2 cells [2] (Caco-2) is on record as 25%.
`O=[As]O[As]=O` (stereo not shown) [As, arsenic oxide (As III)]: in the data set on Caco-2 cells [3], the “decrease in the permeability as measured by Papp” value (shortened to “decrease in the permeability”) is reported as 7.5% and the “decrease of Papp values” came to 7.5%. Moreover, in the data set with Caco-2 cells [2] (at 2 h, concentration 67 μM), the Papp is given as 4.6 ± 0.3 × 10^–6 cm/s. Further, the “decrease of Papp values” in data set [4] is recorded as 63%.
For `CC(=O)[O-].CC(=O)[O-].[Pb+2]` [Pb, lead acetate], in the data set on Caco-2 cells [3], the “decrease in the permeability” value is listed as 7.9% and the “decrease of Papp values” was determined as 8.2%. The absolute bioavailability in data set [5] (estimated from Pb concentration in blood) is listed as 2.7%. In addition, the “fish meal Pb found in kidney” value in data set [5] (kidney) is listed as 1.4%. Also, the “fish meal Pb found in liver” value in data set [5] (liver) is 0.9%. In the data set with Caco-2 cells [2] (Caco-2), the “Pb absorbed (associated and transported by Caco-2 cells)” value is recorded as 30%. In the data set with Caco-2 cells [2], the “Pb moved through the single layer” value is given as 3%, the “Pb retained by the cells” value was “approximately 27%” and the “reduction of ML in the basolateral chamber” value is 50%.
With `[CH3][Hg]` [CH3Hg], the “decrease in the cellular accumulation” value in the data set on Caco-2 cells [2] was “up to 55%”.
In the case of `[Cl][Hg][Cl]` [Hg, mercuric chloride], in the data set with Caco-2 cells [3], the “decrease in the permeability” value worked out at 8.2% and the “decrease of Papp values” stood at 7.9%. Besides, the absorption in vivo in data set [6] is less than 15%. Also, in the data set on Caco-2 cells [2], the cell retention is recorded as 49–69%, the cellular accumulation is reported as 21–51%, the “transport to the basal compartment” value is recorded as 3–14% and the “transport to the basolateral side” value is reported as 9–20%.
In the case of `CC(=O)[O-].CC(=O)[O-].[Cd+2]` [Cd, cadmium acetate], in the data set on Caco-2 cells [3], the “decrease in the permeability” value was 6.3% and the “decrease of Papp values” was found to be 6.3%. The “Cd accumulated in the Caco-2 cells” value with Caco-2 cells [2] (Caco-2) is listed as 6-12%. In addition, in the data set on Caco-2 cells [2], the “lag time during which transport into the basolateral compartment was undetectable” value is given as “about 60 min” and the “reduction of ML in the basolateral chamber” value is reported as 90%.

The values above are taken from paper PMC8289861 (Scientific Reports, 2021).
